# Measured values taken from patent US6492427B2, “Methods for treating multiple sclerosis” (priority 1998, dated 2002).
# Assays:
# oligodendroglial cells [1] = assay: DNA extraction and electrophoresis (DNA ladders); assay type: cell-based, rat; settings: BM + 10^−9 M, 18 h after washing on 16 DIV
# oligodendroglial cells [2] = assay: Nuclear integrity assay: counts of intact nuclei (Zap-oglobin lysis) after insulin and IGF-I withdrawal; assay type: cell-based, rat; settings: for increase in number of intact nuclei compared to BM: BM + 10^−9 M (BM-D9) vs BM; for number of intact nuclei compared to IM: IM + 10^−9 M (IM-D9)
# Experimental: In order to examine insulin and IGF-I dependent survival of the cells of the oligodendroglial lineage, cells were trophically deprived for a period of 24 hours at 16 DIV.
# Cells were trophically withdrawn by replacing the media with a serum free, chemically-defined base media (BM) lacking insulin and IGF-I (Bottenstein et al., 1988). The base media consisited of DMEM supplemented with penicillin (50 IU/ml); streptomycin (50 μg/ml); 1 mM sodium pyruvate; 50 μg/ml transferrin; 0.005 μg/ml sodium selenite; 16 μg/ml putrescine; 0.006 μg/ml progesterone and 0.1 mg/ml bovine serum albumin. All the cells were washed with BM twice before exposing them to individual treatment conditions. Control cells were washed and placed in BM supplemented with 2.5 ng/ml IGF-I and 5 μg/ml insulin to form the insulin media (IM).
# Cell survival in the cultures was assessed according to the method of (Soto and Sonnenschein, 1985). After washing and treatment in BM, BM-D9, IM and IM-D9 for 24 h, cells were harvested, centrifuged at 500 rpm for 5 min and the supernatant removed. Pelleted cells were then lysed with 200 μl of 10% Zap-oglobin (Coulter Electronics, FL, USA). The lysing agent is a detergent containing solution that lyses the plasma membrane but leaves the nuclei intact. The lysed solution was collected and vortexed. A small volume (10 μl) of the solution was removed and intact nuclei were counted using a haemocytometer. To be counted, nuclei had to show a completely intact smooth outer border. Counts of intact nuclei were pooled for three or four experiments (a total of 15-20 wells were used for each treatment condition). each treatment condition).
# OLs at 16 DIV were exposed to the different drug treatment conditions for 24 h, following which, the nuclear integrity assay was performed. On the day of the treatment, the cells growing in Nunc 24 well plates were washed twice with base media. Each treatment well received 50 μl of the appropriate drug solution and the total volume in the well was made up to 500 μl with either BM or IM.
# Nuclear counts were obtained from quadruplicate wells per treatment condition and the experiment was repeated twice. OLs were exposed to the following treatment conditions: 1) IM, 2) BM, 3) BM-D9, 4) (−)-Desmethyldeprenyl (BM-Ds9), 5) IM-D9 and 6) IM +10^−9 M (−)-Desmethyldeprenyl (IM-Ds9).
# The treatment conditions with the three general cytochrome P450 blockers were: 1) BM+Proadifen (2.5, 10, 25 μM), 2) BM-D9+Proadifen (2.5, 10, 25 μM), 3) BM-Ds9+Proadifen (2.5, 10, 25 μM), 4) BM+Metapyrone (50 μM), 5) BM-D9+Metapyrone (50 μM), 6) BM-Ds9+Metapyrone (50 μM), 7) BM+Piperonyl butoxide (100 μM), 5) BM-D9+Piperonyl butoxide (100 μM), 6) BM-Ds9+Piperonyl butoxide (100 μM).
# OLs at 16 DIV were washed twice with base media and exposed either to actinomycin, a transcriptional blocker or cycloheximide, a translational blocker for 24 h. […] Actinomycin and cycloheximide were either used with base media alone or in combination with 10^−9 M (−)-desmethyldeprenyl. Each treatment well received 50 μl of the drug solution and the total volume of the well was made up to 500 μl with base media.
# Counts of intact nuclei, obtained from quadruplicate wells per treatment condition were used to quantitate the effects of the transcriptional and translational blockers. Each experiment was repeated twice for experimental density series-II.
# [3] = test system: CA1, CA3 and CA4 hippocampal neurons; settings: 0.25 mg/kg daily, multiple time points up to 14 days (Paterson et al., 1997); cited from earlier work
# ASTs = assay: Methylene blue counts of individual cell types: ASTs; assay type: cell-based, rat; settings: BM-D9, 24 h
# Experimental: (§1) Methylene blue (3,7-bis (dimethylamino)-phenothiazin-5-ium chloride), a ribonucleic acid (RNA) binding agent commonly used as an alternative nucleic acid stain, can also be used as a biological staining agent to stain cells in order to observe their morphological features. At 24 h, cells were fixed in 2% paraformaldehyde for 15 min at room temperature. Briefly, cells were washed twice with PBS and 100 μl of 1% methylene blue (Mallinckrodt Chemical Co., MO, USA) solution containing 1% AgNO3 was added for 10 min to the wells containing coverslips. Subsequently, the coverslips were washed with two changes of distilled water and absolute ethanol, cleared with xylene and mounted on slides with permount.
# (§2) Cell counts were performed for 25 randomly chosen 100 power fields on each coverslip. Two randomly generated coordinates drawn from a uniform distribution of random numbers specified the center of each field. The random numbers were generated on a computer by using Microcal Origin 4.0 program. […] Three coverslips was counted for each treatment condition. In subsequent experiments, different cell types (for example, O-2A progenitors, PROLs, OLs and astrocytes) were morphologically identified on each field and were counted separately for experimental series-I and II. […]
# O-2As = assay: Methylene blue counts of individual cell types: O-2As; assay type: cell-based, rat; settings: BM-D9, 24 h
# Experimental: as §1, §2
# oligodendroglial cells [4] = assay: In situ DNA end labeling (ApopTag), counts of apoptotic nuclei; assay type: cell-based, rat; settings: 6, 12, 15, 18, 24 h, both experimental series
# Experimental: The ApopTag™ method utilizes an ApopTag™ in situ apoptosis detection kit (Oncor, Md., USA), which detects nuclei with, cut 3′-OH ends of DNA. Oligodendrocytes at 16 DIV were treated with BM, BM-D9, IM and IM-D9 for 6, 12, 15, 18 and 24 h. Cells were fixed in 2% paraformaldehyde, followed by three washes in 0.1M PBS and permeabilization with 0.05% Tween-20 in PBS for 10 min at room temperature. Endogenous peroxidase was quenched with 1% H2O2 in PBS for 5 min at room temperature. Coverslips were then covered with 1 X equilibration buffer for 30 min at room temperature and then incubated with terminal deoxynucleotidyl transferase (TdT)/reaction buffer (76 μl of reaction buffer+32 μl of TdT enzyme) for 1 h at 37° C. A stop wash buffer incubation for 30 min at 37° C. was used to terminate the 3′-OH DNA extension reaction. After a PBS wash, the coverslips were incubated with antidigoxigenin peroxidase antibody. After three washes with 0.1M PBS, chromogenic detection was carried out using DAB (1.5 mg/ml) mixed with hydrogen peroxide (H2O2; 0.02% v/v) yielding a brown reaction product. Coverslips were dehydrated in ascending grade alcohol series, cleared with xylene and mounted on slides using a drop of permount. ApopTag™ positive nuclei were randomly counted in triplicate (described in section 2.5), for each of the time points, for experimental series-I and II.
structure (smiles),measurement,setting,value
"C#CCN(C)[C@H](C)Cc1ccccc1 [(−)-deprenyl, R-(−)-N,α-Dimethyl-N-2-propynyl phenethylamine]",DNA laddering on electrophoresis gels,oligodendroglial cells [1],did not show detectable laddering
same,increase in number of intact nuclei compared to BM,"oligodendroglial cells [2]; 24 h, experimental series-I",217%
same,increase in number of intact nuclei compared to BM,"oligodendroglial cells [2]; 24 h, experimental series-II (15.8×10^3 cell/mm^2)",164%
same,"numbers of intact nuclei, % of those in IM","oligodendroglial cells [2]; BM + 10^−9 M (BM-D9), 24 h, experimental series-I (5.3×10^3 cell/mm^2)",119%
same,increase in counts of intact nuclei compared to those for BM,"oligodendroglial cells [2]; BM + 10^−9 M, 24 h, metabolite experiments (FIG. 11)",194%
same,"concentration-survival relationship, numbers of intact nuclei","oligodendroglial cells [2]; BM with 10^−5, 10^−7 and 10^−9 M, 24 h",graded increase in the numbers of intact nuclei with the greatest increase for 10^−9 M
same,number of intact nuclei compared to IM,"oligodendroglial cells [2]; 24 h, experimental series-I",135.6%
same,number of intact nuclei compared to IM,"oligodendroglial cells [2]; 24 h, experimental series-II",102.4%
same,Survival (24 h),"oligodendroglial cells [2]; OL cell survival, relative to control (IM)",++++
same,"CA1, CA3 and CA4 hippocampal neuronal survival",[3],markedly significant increases in neuronal survival
same,AST cell numbers compared to those in BM,ASTs; experimental series II,132%
same,AST cell numbers compared to those in BM,ASTs; experimental series-I,570%
same,O-2A cell numbers compared to those in BM,O-2As; experimental series II,176%
same,O-2A cell numbers compared to those in BM,O-2As; experimental series-I,244%
same,number of ApopTag positive nuclei,oligodendroglial cells [4]; 10^−9 M added to IM,did not significantly change the number of ApopTag™ positive nuclei
same,number of ApopTag positive nuclei,oligodendroglial cells [4]; 10^−9 M added to base media (BM),significantly decreased the numbers of ApopTag™ nuclei in both experimental series
same,number of ApopTag positive nuclei,"oligodendroglial cells [4]; 10^−9 M added to base media (BM), listed as (−)-Deprenyl",reduced the incidence of apoptotic nuclei at all the time points
